We go through 38 molecules from the Kinase Knowledgebase extract (Sharma et al. 2016).

≈ marks a conversion by molar mass, not a printed value.

The first assay deals with EGFR (human) (UniProt P00533).
EGFR (human), sequence (P00533 whole entry, looked up): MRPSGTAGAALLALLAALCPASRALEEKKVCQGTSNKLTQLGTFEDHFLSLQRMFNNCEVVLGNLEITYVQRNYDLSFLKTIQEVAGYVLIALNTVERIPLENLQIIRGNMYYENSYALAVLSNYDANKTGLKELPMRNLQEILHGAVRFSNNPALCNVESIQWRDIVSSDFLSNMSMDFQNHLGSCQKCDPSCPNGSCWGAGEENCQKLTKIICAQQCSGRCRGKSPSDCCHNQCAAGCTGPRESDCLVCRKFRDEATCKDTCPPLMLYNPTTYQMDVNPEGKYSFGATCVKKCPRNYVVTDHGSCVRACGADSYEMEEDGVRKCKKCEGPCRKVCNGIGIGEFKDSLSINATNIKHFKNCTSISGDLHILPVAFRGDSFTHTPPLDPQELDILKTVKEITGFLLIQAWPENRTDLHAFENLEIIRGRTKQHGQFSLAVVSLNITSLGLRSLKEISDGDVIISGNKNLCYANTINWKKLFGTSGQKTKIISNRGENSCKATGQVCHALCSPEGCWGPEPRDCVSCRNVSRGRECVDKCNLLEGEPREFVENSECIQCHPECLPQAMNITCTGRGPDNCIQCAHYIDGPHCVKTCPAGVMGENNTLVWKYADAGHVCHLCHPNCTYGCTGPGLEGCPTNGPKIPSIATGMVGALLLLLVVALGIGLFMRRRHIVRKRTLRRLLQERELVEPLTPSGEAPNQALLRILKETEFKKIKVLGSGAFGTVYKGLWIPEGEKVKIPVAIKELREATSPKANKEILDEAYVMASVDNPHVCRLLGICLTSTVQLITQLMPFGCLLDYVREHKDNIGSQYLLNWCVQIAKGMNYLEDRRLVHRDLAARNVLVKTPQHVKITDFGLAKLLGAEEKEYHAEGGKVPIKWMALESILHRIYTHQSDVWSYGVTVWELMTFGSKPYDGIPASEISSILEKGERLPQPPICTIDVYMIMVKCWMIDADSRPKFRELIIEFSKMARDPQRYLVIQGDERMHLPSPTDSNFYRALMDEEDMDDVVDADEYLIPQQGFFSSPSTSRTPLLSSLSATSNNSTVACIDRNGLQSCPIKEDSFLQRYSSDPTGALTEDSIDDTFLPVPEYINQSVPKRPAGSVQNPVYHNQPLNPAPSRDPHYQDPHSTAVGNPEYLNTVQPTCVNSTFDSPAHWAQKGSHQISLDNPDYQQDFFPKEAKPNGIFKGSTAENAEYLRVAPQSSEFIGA
Test: not given
Conditions: not given
On to `OCCN(CCO)CC1COc2cc3ncnc(Nc4cccc(Br)c4)c3cc2O1` (stereo unspecified), for which the half-inhibitory concentration (IC50) turned out to be 0.021 mg/L (≈ 0.0442 µM).
With `Brc1cccc(Nc2ncnc3cc4c(cc23)OC(CN2CCOCC2)CO4)c1` (stereo unspecified), the IC50 worked out at 0.046 mg/L (≈ 0.101 µM).
`CN1CCN(CC2COc3cc4ncnc(Nc5cccc(Br)c5)c4cc3O2)CC1` (stereo unspecified) displayed a half-maximal inhibitory concentration (IC50) of 0.058 mg/L (≈ 0.123 µM).
On the same count and under the same terms, the result for `OCCNCC1COc2cc3ncnc(Nc4cccc(Br)c4)c3cc2O1` (stereo unspecified) reads 0.022 mg/L (≈ 0.051 µM).

Another assay addresses EGFR (UniProt P00533).
Test: not given
The settings on record: concentration not given here.
`NC(=O)c1c(NC(=O)Nc2ccccc2)sc2cc(O)ccc12`: the inhibition is above 50%.

The next assay has as its target MAPK14 (UniProt Q16539). The assay can be described thus: p38 Inhibition Assay (in Vitro).
Conditions: not given
Molecule `O=C(NCc1ccc(S(=O)(=O)N2CCC(C(=O)c3ccc(F)cc3F)CC2)s1)c1ccc(Cl)cc1` yielded an IC50 above 30 µM.
Same read-out and setting: with `O=C(NCc1ccc(S(=O)(=O)N2CCN(c3ncccn3)CC2)s1)c1ccc(Cl)cc1` the figure was above 30 µM; with `O=C(NCc1ccc(S(=O)(=O)N2CCC(Nc3cccc(S(=O)(=O)C(F)(F)F)c3)CC2)s1)c1ccc(Cl)cc1`, above 30 µM; with `O=C(NCc1ccc(S(=O)(=O)N2CCN(C(=O)N3C=Cc4oncc4C3)CC2)s1)c1ccc(Cl)cc1`, above 30 µM.
The same measure, in the same setting: with `O=C(NCc1ccc(S(=O)(=O)N2CCC(n3nnc4ccccc43)CC2)s1)c1ccc(Cl)cc1` the figure was above 30 µM.

A further assay deals with EGFR (murine) (UniProt P00533).
EGFR (murine), sequence (P00533 whole entry, looked up): as above
Test: not given
The settings on record: f/l herc cells.
On to `CCOC(=O)CN1CCC[C@H]1COc1cc2c(Nc3cccc(Br)c3)ncnc2cc1OC`, for which the IC50 amounted to 0.02 µM.
The molecule `CCOC(=O)CN1CCN(CCCOc2cc3c(Nc4cccc(Br)c4)ncnc3cc2OC)C(O)C1` (stereo unspecified) came in with an IC50 of 0.033 µM.
For the molecule `COC(=O)CCC1CN(CC(=O)OC)CCN1CCOc1cc2c(Nc3cccc(Br)c3)ncnc2cc1OC` (stereo unspecified), the IC50 was 0.077 µM.
Regarding `CCOC(=O)CN(CCOc1cc2c(Nc3cccc(Br)c3)ncnc2cc1OC)CC(=O)OCC`, the IC50 amounted to 0.07 µM.
Turning to `CCOC(=O)CN(C)CCOc1cc2c(Nc3cccc(Br)c3)ncnc2cc1OC`, the IC50 turned out to be 0.1 µM.

In a further assay the target is MAPK14 (human) (UniProt Q16539). The assay can be described thus: TNF Inhibition (PBMC).
MAPK14 (human), sequence (Q16539 whole entry, looked up): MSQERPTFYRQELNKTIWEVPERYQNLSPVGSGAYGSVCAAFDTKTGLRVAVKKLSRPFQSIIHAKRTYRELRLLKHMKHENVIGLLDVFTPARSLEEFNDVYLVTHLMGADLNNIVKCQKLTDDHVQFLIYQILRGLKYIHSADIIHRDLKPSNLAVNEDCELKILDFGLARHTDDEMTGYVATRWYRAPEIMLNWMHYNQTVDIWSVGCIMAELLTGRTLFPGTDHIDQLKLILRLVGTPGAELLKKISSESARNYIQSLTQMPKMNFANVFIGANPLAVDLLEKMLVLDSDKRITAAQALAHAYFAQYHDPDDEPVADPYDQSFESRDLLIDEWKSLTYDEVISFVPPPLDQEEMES
Conditions: not given
Regarding `COc1ccc2c(-c3ccncc3)c(-c3ccc(F)cc3)[nH]c2c1`, the IC50 turned out to be 0.4 µM.
The same measure, in the same setting: the result for `Nc1ccc2c(-c3ccncc3)c(-c3ccc(F)cc3)[nH]c2c1` reads 0.2 µM; that for `Fc1ccc(-c2[nH]c3ccccc3c2-c2ccncc2)cc1`, above 10 µM.

Still in this assay, the particulars now being: concentration not given here.
With `CC(=O)OCCCCc1nc(-c2ccncc2)c(-c2ccc(F)cc2)n1COCC[Si](C)(C)C`, the inhibition came out at 0%.
In the case of `C[Si](C)(C)CCOCn1c(CCCCO)nc(-c2ccncc2)c1-c1ccc(F)cc1`, the inhibition stood at 0%.

The target of a further assay is MAPK14 (UniProt Q16539). The assay can be described thus: Assessment of MAPK14 Kinase Activity.
MAPK14, sequence (Q16539 whole entry, looked up): as above
Conditions: not given
For `CS(=O)(=O)N1CCC(Nc2ncc3c(n2)N2CCN=C2C(c2ccccc2Cl)=C3)CC1`, the IC50 came out at 0.0027 µM.
`O[C@H]1CC[C@H](Nc2ncc3c(n2)N2CCN=C2N(c2ccccc2Cl)C3)CC1` had a concentration for half-maximal inhibition (IC50) of 6.62 µM.
Same read-out and setting: with `CC(C)(CO)Nc1ncc2cc(-c3ccccc3Cl)c3nccn3c2n1` the figure was 0.0188 µM.
In the case of `CC(C)Nc1ncc2cc(-c3ccccc3Cl)c3nccn3c2n1`, the IC50 amounted to 0.0014 µM.

The next assay relates to PIK3CG (murine). The assay can be described thus: Inhibition of C5a-Mediated AKT Phosphorylation in Raw 264.7 Macrophages.
Conditions: not given
`O=C1NC(=O)/C(=C/c2ccc3c(c2)OCO3)S1`: the inhibition came to 100%.
Turning to `O=C1NC(=O)/C(=C/c2ccc3ncnc(N4CCCCC4)c3c2)S1`, the inhibition was 100%.
On to `N=C1NC(=O)/C(=C/c2ccc3nccnc3c2)S1`, for which the inhibition was 100%.
In turn, `O=C1NC(=O)/C(=C/c2ccc3nsnc3c2)S1` gave an inhibition of 100%.

A further assay deals with MAPK14 (UniProt Q16539). The assay can be described thus: p38 Inhibition.
Conditions: not given
Molecule `O=C(NCc1ccc(S(=O)(=O)NNC(=O)c2csc(COc3ccccc3Cl)n2)s1)c1ccc(Cl)cc1` gave an IC50 above 30 µM.
`O=C(NCc1ccc(S(=O)(=O)NNC(=O)c2csc(-c3ccc(C4SCCS4)cc3)n2)s1)c1ccc(Cl)cc1` gave a half-maximal inhibitory concentration (IC50) above 30 µM.
For the molecule `O=C(CCCNc1ncc(C(F)(F)F)cc1Cl)NNS(=O)(=O)c1ccc(CNC(=O)c2ccc(Cl)cc2)cc1`, the IC50 was above 30 µM.

For another assay, the target named is EGFR (UniProt P00533).
EGFR, sequence (P00533 whole entry, looked up): as the sequence (P00533 whole entry, looked up) above
Test: not given
Conditions: not given
`Cc1cccc(Nc2ncnc3ccc(N)cc23)c1` came in with an IC50 of 1 µM.
In the case of `Cc1cccc(Nc2ncnc3ccc(N(C)C(=O)NCCCl)cc23)c1`, the IC50 was 1.69 µM.
Still for that read-out and setting: with `CN(C(=O)NCCCl)c1ccc2ncnc(Nc3cccc(Br)c3)c2c1` the figure was 0.156 µM; with `CN(C(=O)NCCCl)c1ccc2ncnc(Nc3cccc(Cl)c3)c2c1`, 0.081 µM.

Another assay concerns the target PIK3CG (UniProt P48736). The assay can be described thus: Inhibition of PIK3CG Kinase Activity.
Conditions: not given
In the case of `N#C/C(=C1/Nc2ccccc2S1)c1ccnc(NCCc2cccnc2)n1`, the half-inhibitory concentration (IC50) was above 10 µM.

A further assay deals with MAPK14 (UniProt Q16539). The assay can be described thus: Inhibition of p38 Kinase Activity.
Conditions: not given
The molecule `O=C(NCc1ccc(S(=O)(=O)NNC(=O)c2csc(COc3ccccc3Cl)n2)s1)c1ccc(Cl)cc1` showed an IC50 above 30 µM.
On to `O=C(NCc1ccc(S(=O)(=O)NNC(=O)c2csc(-c3ccc(C4SCCS4)cc3)n2)s1)c1ccc(Cl)cc1`, for which the 50% inhibitory concentration (IC50) is above 30 µM.
Turning to `NC(=O)c1cccn(Cc2ccc(S(=O)(=O)NNC(=O)CCCNc3ncc(C(F)(F)F)cc3Cl)s2)c1=O`, the IC50 is above 30 µM.
`O=C(CCCNc1ncc(C(F)(F)F)cc1Cl)NNS(=O)(=O)c1ccc(CNC(=O)c2ccccc2O)s1`: the IC50 was above 30 µM.
In turn, `O=C(CCCNc1ncc(C(F)(F)F)cc1Cl)NNS(=O)(=O)c1ccc(CNC(=O)c2ccc(Cl)cc2)cc1` registered an IC50 above 30 µM.
